Reference: a melting point compilation (Tetko et al.; mined from patent text by program, amines drawn as free bases though some values may be those of a salt)

SMILES | melting point
O=C(O)Cc1c(C(=O)O)c2cc(Oc3ccc(C(F)(F)F)cc3)ccc2n1-c1ccccc1 | 255 to 257 °C
NCCn1cnc2c(N)nc3ccccc3c21 | 265 °C
CC(=O)Nc1nn(C)c2c1sc1cc(C)ccc12 | 253 to 255 °C
CCOC(=O)c1ccc(N=C(Nc2ccc(C(=O)OCC)cc2)c2ccccc2OC)cc1 | 163 to 164 °C
O=C1NCc2c(cccc2Oc2ccccc2)N1 | 278 to 280 °C
O=C1c2ccc(Nc3ccc(F)cc3F)cc2CCc2ccc(OCCCN3CCOCC3)cc21 | 114 °C
Cc1noc(NC(=O)C2c3ccccc3Oc3ccccc32)n1 | 208 °C
CCOC(=O)c1nn(-c2ccc(Cl)cc2)c2c1CCC2 | 122 to 123 °C
CC1(C)CC(=O)C=C(Nc2ccccc2Cl)C1 | 150 to 152 °C
CC(=O)NCC(C)(C)c1ccc(C(=O)Nc2cn3cc(Cl)ccc3n2)cc1 | 220 to 222 °C
CNC(=O)Cc1ccc2ccn(C3CCN(CCc4ccccc4F)CC3)c2c1 | 136 to 137 °C
Cc1ccc(NN2C=c3cc(-c4c(Cl)cccc4Cl)c(=O)n(C)c3=NC2)cc1 | 243 to 245 °C
Cc1c(C)c2c(c(C)c1NC(=O)CC(C)(C)C)C(N1CCCCC1)C(C)(C)O2 (stereo unspecified) | 229 to 230 °C
CCN(CC)Cc1ccc2cc(COc3cccc4c3CN(C3CCC(=O)NC3=O)C4=O)sc2c1 (stereo unspecified) | 190 to 192 °C
COc1cc(Nc2c(C#N)cnc3cc(-c4ccc(N5CCOCC5)cc4)ccc23)c(Cl)cc1Cl | 162 to 164 °C
CC1=NN(c2ccccc2O)C(=O)C1 | 212 to 214 °C
CC(=O)c1cccc2cc3cccc(C(C)=O)c3cc12 | 178 to 181 °C
N#CC(=C1CCCN1)c1ccc(Cl)cc1 | 135 to 137 °C
COc1ccccc1CN[C@H]1CCCN[C@H]1C1CCCCC1 (relative stereo) | > 225 °C
CCOC(=O)[C@H](Cc1ccc([N+](=O)[O-])cc1I)NC(=O)OCc1ccccc1 | 85 to 87 °C
CCc1nc(N)nc(N)c1-c1ccc(NCc2ccc(Cl)c(Cl)c2)c([N+](=O)[O-])c1 | 244 to 246 °C

SMILES | melting point
COc1cccc2c(O)c(CO)cnc12 | > 350 °C
O=C(Cl)c1ccc(C(=O)c2ccccc2)cc1 | 92 °C
Fc1ccccc1Cn1cnc2c(Nn3cccc3)ncnc21 | 204 to 206 °C
Cc1ccc2c(N)c(C#N)sc2n1 | 241 to 242 °C
FC(F)(F)COc1nc(-c2ccccc2)c2cc(Cl)ccc2n1 | 185 to 186 °C
N#Cc1ccc(NC(=O)Nc2ccc(S(N)(=O)=O)cc2)cc1 | 265 to 267 °C
Cc1ncsc1C(C)(O)c1ccccc1 (stereo unspecified) | 128 to 130 °C
CSc1nc2ccnn2c(O)c1C#N | > 250 °C
Clc1ccc2c(-n3cc(Cl)cn3)ccnc2c1 | 110 to 114 °C
O=C1CCN(c2c(F)cc([N+](=O)[O-])cc2F)CC1 | 130 to 132 °C
O=C1c2ccccc2CN1C1CCN(Cc2ccccc2)CC1 | 116 to 118 °C
O=C(COc1ccc(Cl)cc1Cl)OCCOC(=O)c1cc(Oc2ccc(C(F)(F)F)cc2Cl)ccc1[N+](=O)[O-] | 111 to 118 °C
CCOC(=O)CCc1cc([N+](=O)[O-])ccc1O | 199 to 200 °C
O=C(Nc1nnn(C(F)F)n1)C(c1ccccc1)c1ccccc1 | 143 to 145 °C
COc1cccc(NC(=N)Nc2cccc(OC)c2)c1 | 134 to 135 °C
O=C1c2c(O)ccc(O)c2C(=O)c2c(NCCN3CCCCC3)ccc(NCCN3CCCCC3)c21 | 219 to 221 °C
COc1cc2c(c(Cl)c1Cl)C(=O)C(C)(C)C2(C)c1ccccc1 (stereo unspecified) | 189 to 190 °C
O=S1(=O)c2cccc3cccc(c23)N1CCCN1CCN(c2ccccc2)CC1 | 126 °C
C=CCS(=O)(=O)c1ccc(NC(C)=O)cc1 | 116 to 118 °C
NC(=O)c1cccc(-n2c(=O)n(Cc3cccnc3)c(=O)c3cccnc32)c1 | 219 to 220 °C
